Source: EP1969933A1, “Di-halogen phenoxy phenylamidines and their use as fungicides” (Bayer CropScience AG, priority 2007, dated 2008)
Where two headings read alike, the source gives them in different places.

How the values were obtained:
[1] = logP (acidic, pH 2.3, and neutral); assay type: physicochemical; details: for logP: read-out: logP neutr.
Puccinia recondita = experiment: Puccinia test (wheat) / protective; assay type: in vivo; details: 240 h, 1000 ppm active ingredient, protective spray, evaluated 10 days after inoculation, 0 % = control, 100 % = no infestation, read-out: Wirkungsgrad
Excerpt: (§1) Zur Herstellung einer zweckmäßigen Wirkstoffzubereitung vermischt man 1 Gewichtsteil Wirkstoff mit den angegebenen Mengen Lösungsmittel und Emulgator und verdünnt das Konzentrat mit Wasser auf die gewünschte Konzentration.
Zur Prüfung auf protektive Wirksamkeit werden junge Pflanzen mit der Wirkstoffzubereitung in der angegebenen Aufwandmenge besprüht. Nach Antrocknen des Spritzbelages werden die Pflanzen mit einer Konidiensuspension von Puccinia recondita besprüht. Die Pflanzen verbleiben 48 Stunden bei 20°C und 100 % relativer Luftfeuchtigkeit in einer Inkubationskabine.
Die Pflanzen werden dann in einem Gewächshaus bei einer Temperatur von ca. 20°C und einer relativen Luftfeuchtigkeit von 80 % aufgestellt, um die Entwicklung von Rostpusteln zu begünstigen.
10 Tage nach der Inokulation erfolgt die Auswertung. Dabei bedeutet 0 % ein Wirkungsgrad, der demjenigen der Kontrolle entspricht, während ein Wirkungsgrad von 100 % bedeutet, daß kein Befall beobachtet wird.

[2] = tested on: Erysiphe graminis f. sp. hordei; experiment: Erysiphe test (barley) / protective; assay type: in vivo; details: Blumeria graminis, 168 h, 500 ppm active ingredient, evaluated 7 days after inoculation, 0 % = control, 100 % = no infestation, read-out: Wirkungsgrad
Excerpt: as §1
Zur Prüfung auf protektive Wirksamkeit bespritzt man junge Getreidepflanzen mit der Wirkstoffzubereitung in der angegebenen Aufwandmenge. 1 Tag nach der Behandlung werden die Pflanzen mit Sporen von Erysiphe graminis f. sp. hordei inokuliert. Anschließend werden die Pflanzen in einem Gewächshaus bei 70 % relativer Luftfeuchtigkeit und einer Temperatur von 18°C aufgestellt.
7 Tage nach der Inokulation erfolgt die Auswertung. Dabei bedeutet 0 % ein Wirkungsgrad, der demjenigen der Kontrolle entspricht, während ein Wirkungsgrad von 100 % bedeutet, daß kein Befall beobachtet wird.

Leptosphaeria nodorum = Leptosphaeria nodorum test (wheat) / protective; assay type: in vivo; details: 500 ppm active ingredient, evaluated 12-14 days after inoculation, 0 % = control, 100 % = no infestation
Excerpt: as §1
Zur Prüfung auf protektive Wirksamkeit bespritzt man junge Weizenpflanzen mit der Wirkstoffzubereitung in der angegebenen Aufwandmenge. 1 Tag nach der Behandlung werden die Pflanzen mit einer wäßrigen Sporensuspension von Leptosphaeria nodorum inokuliert und verbleiben dann 48h bei 100% rel. Luftfeuchte und 20°C. Anschließend werden die Pflanzen in einem Gewächshaus bei 80 % rel. Luftfeuchtigkeit und einer Temperatur von 22°C aufgestellt.
12-14 Tage nach der Inokulation erfolgt die Auswertung. Dabei bedeutet 0 % ein Wirkungsgrad, der demjenigen der Kontrolle entspricht, während ein Wirkungsgrad von 100 % bedeutet, dass kein Befall beobachtet wird.

Podosphaera leucotricha = experiment: Podosphaera test (apple) / protective; assay type: in vivo; details: 240 h, 100 ppm active ingredient, evaluated 10 days after inoculation, 0 % = control, 100 % = no infestation, read-out: Wirkungsgrad
Excerpt: as §1
(§2) Zur Prüfung auf protektive Wirksamkeit werden junge Pflanzen mit der Wirkstoffzubereitung in der angegebenen Aufwandmenge besprüht. Nach Antrocknen des Spritzbelages werden die Pflanzen mit einer wäßrigen Sporensuspension des Apfelmehltauerregers Podosphaera leucotricha inokuliert. Die Pflanzen werden dann im Gewächshaus bei ca. 23°C und einer relativen Luftfeuchtigkeit von ca. 70% aufgestellt.
(§3) 10 Tage nach der Inokulation erfolgt die Auswertung. Dabei bedeutet 0% ein Wirkungsgrad, der demjenigen der Kontrolle entspricht, während ein Wirkungsgrad von 100% bedeutet, daß kein Befall beobachtet wird.

Sphaerotheca fuliginea = experiment: Sphaerotheca test (cucumber) / protective; assay type: in vivo; details: Podosphaera fuliginea, 168 h, 100ppm active ingredient, evaluated 7 days after inoculation, 0 % = control, 100 % = no infestation, read-out: Wirkungsgrad
Excerpt: as §1
as §2, with “von Sphaerotheca fuliginea” for “des Apfelmehltauerregers Podosphaera leucotricha”, “dann” for “dann im Gewächshaus”, “70% im Gewächshaus” for “70%”
7 Tage nach der Inokulation erfolgt die Auswertung. Dabei bedeutet 0% ein Wirkungsgrad, der demjenigen der Kontrolle entspricht, während ein Wirkungsgrad von 100% bedeutet, daß kein Befall beobachtet wird.

Uromyces appendiculatus = experiment: Uromyces test (bean) / protective; assay type: in vivo; details: 10ppm active ingredient, evaluated 10 days after inoculation, 0 % = control, 100 % = no infestation
Excerpt: as §1
Zur Prüfung auf protektive Wirksamkeit werden junge Pflanzen mit der Wirkstoffzubereitung in der angegebenen Aufwandmenge besprüht. Nach Antrocknen des Spritzbelages werden die Pflanzen mit einer wäßrigen Sporensuspension des Bohnenrosterregers Uromyces appendiculatus inokuliert und verbleiben dann 1 Tag bei ca. 20°C und 100% relativer Luftfeuchtigkeit in einer Inkubations-kabine.
Die Pflanzen werden dann im Gewächshaus bei ca. 21°C und einer relativen Luftfeuchtigkeit von ca. 90% aufgestellt.
as §3

[3] = pH 2, pH 2,3, read-out: log P (pH 2,3)
[4] = pH 2.3, acidic, read-out: logP sauer

Row | Compound | logP ([1]; neutral) | logD [1, 4] | pest or weed control at 1000 ppm (Puccinia recondita) [%] | pest or weed control at 500 ppm [2] [%] | also measured
1 | Cc1cc(Oc2ccc(Cl)c(Cl)c2)c(C)cc1N [4-(3,4-Dichlorphenoxy)-2,5-dimethylanilin] | – | – | – | – | logD [1, 3]: 3.51
2 | Cc1cc([N+](=O)[O-])c(C)cc1Oc1ccc(Cl)c(Cl)c1 [4-(3,4-Dichlorphenoxy)-2,5-dimethylnitrobenzol] | – | – | – | – | logD [1, 3]: 5.19
3 | CCN(C)C=Nc1cc(C)c(Oc2ccc(F)c(F)c2)cc1C [Nr. 2] | 6.2 | 2.37 | – | – | –
4 | CCN(C)C=Nc1cc(C)c(Oc2cc(F)cc(Br)c2)cc1C [Nr. 3] | 5.8 | 2.29 | ≥ 70 | ≥ 70 | Wirkungsgrad (Leptosphaeria nodorum): ≥ 70%; pest or weed control at 100 ppm (Podosphaera leucotricha): ≥ 70%; pest or weed control at 100 ppm (Sphaerotheca fuliginea): ≥ 70%; Wirkungsgrad (Uromyces appendiculatus): ≥ 70%
5 | CCN(C)C=Nc1cc(C)c(Oc2cc(Br)cc(Br)c2)cc1C [Nr. 4] | 6 | 2.5 | ≥ 70 | ≥ 70 | pest or weed control at 100 ppm (Podosphaera leucotricha): ≥ 70%; pest or weed control at 100 ppm (Sphaerotheca fuliginea): ≥ 70%
6 | Cc1cc(Oc2cc(Br)cc(Br)c2)c(C)cc1N=CN(C)C(C)C [Nr. 5] | 6.4 | 2.62 | ≥ 70 | ≥ 70 | –
7 | CCN(C)C=Nc1cc(C)c(Oc2cc(Cl)cc(Br)c2)cc1C [Nr. 6] | 6.4 | 2.56 | ≥ 70 | ≥ 70 | pest or weed control at 100 ppm (Podosphaera leucotricha): ≥ 70%; pest or weed control at 100 ppm (Sphaerotheca fuliginea): ≥ 70%
8 | Cc1cc(Oc2cc(Cl)cc(Br)c2)c(C)cc1N=CN(C)C(C)C [Nr. 7] | 6.8 | 2.7 | ≥ 70 | ≥ 70 | pest or weed control at 100 ppm (Podosphaera leucotricha): ≥ 70%; pest or weed control at 100 ppm (Sphaerotheca fuliginea): ≥ 70%; Wirkungsgrad (Uromyces appendiculatus): ≥ 70%
9 | CCN(C)C=Nc1cc(C)c(Oc2cc(F)cc(Cl)c2)cc1C [Nr. 8] | 5.6 | 2.21 | ≥ 70 | ≥ 70 | –
10 | Cc1cc(Oc2cc(F)cc(Cl)c2)c(C)cc1N=CN1CCCCC1 [Nr. 9] | 6.3 | 2.42 | ≥ 70 | ≥ 70 | pest or weed control at 100 ppm (Podosphaera leucotricha): ≥ 70%; pest or weed control at 100 ppm (Sphaerotheca fuliginea): ≥ 70%
11 | Cc1cc(Oc2cc(F)cc(Cl)c2)c(C)cc1N=CN1CCCC1 [Nr. 10] | 5.6 | 2.26 | – | – | –
12 | CCCN(C)C=Nc1cc(C)c(Oc2cc(F)cc(Cl)c2)cc1C [Nr. 11] | 6.1 | 2.39 | ≥ 70 | ≥ 70 | pest or weed control at 100 ppm (Podosphaera leucotricha): ≥ 70%; pest or weed control at 100 ppm (Sphaerotheca fuliginea): ≥ 70%
13 | Cc1cc(Oc2cc(F)cc(Br)c2)c(C)cc1N=CN1CCCCC1 [Nr. 12] | 6.5 | 2.55 | ≥ 70 | ≥ 70 | –
14 | Cc1cc(Oc2cc(F)cc(Br)c2)c(C)cc1N=CN1CCCC1 [Nr. 13] | 5.7 | 2.37 | ≥ 70 | ≥ 70 | –
15 | CCCN(C)C=Nc1cc(C)c(Oc2cc(F)cc(Br)c2)cc1C [Nr. 14] | 7.4 | 2.37 | ≥ 70 | ≥ 70 | –
16 | CCN(C)C=Nc1cc(C)c(Oc2ccc(Cl)c(Br)c2)cc1C [Nr. 15] | 6.1 | 2.23 | ≥ 70 | – | Wirkungsgrad (Leptosphaeria nodorum): ≥ 70%
17 | Cc1cc(Oc2ccc(Cl)c(Br)c2)c(C)cc1N=CN1CCCCC1 [Nr. 16] | 6.9 | 2.66 | ≥ 70 | – | –
18 | CCCN(C)C=Nc1cc(C)c(Oc2ccc(Cl)c(Br)c2)cc1C [Nr. 17] | 6.6 | 2.64 | – | – | –
19 | Cc1cc(Oc2ccc(Cl)c(Br)c2)c(C)cc1N=CN1CCCC1 [Nr. 18] | 6.6 | 2.56 | – | – | –
20 | CCN(C)C=Nc1cc(C)c(Oc2cc(F)cc(I)c2)cc1C [Nr. 19] | – | 2.4 | ≥ 70 | – | –
21 | CCCN(C)C=Nc1cc(C)c(Oc2cc(F)cc(I)c2)cc1C [Nr. 20] | 6.6 | 2.61 | – | – | –
22 | CCCN(C)C=Nc1cc(C)c(Oc2cc(F)cc(Br)c2)cc1C [Nr. 28] | – | – | – | – | logP sauer ([1]; acidic): 2,91; logP neutr. ([1]; neutral): 6,9
23 | CCN(C)C=Nc1cc(C)c(Oc2ccc(Cl)c(Cl)c2)cc1C [Nr. 30, N-Ethyl-N-methyl-N'-[4-(3,4-dichlorphenoxy)-2,5-dimethylphenyl]formamidin] | – | – | – | – | logD [1, 3]: 2.48

The next lines start with results.

Row | logP ([1]; neutral) | logD [1, 4] | Compound | pest or weed control at 1000 ppm (Puccinia recondita) [%] | pest or weed control at 500 ppm [2] [%] | also measured
24 | 6.8 | 2.6 | Cc1cc(Oc2cc(F)cc(I)c2)c(C)cc1N=CN1CCCCC1 [Nr. 21] | ≥ 70 | – | Wirkungsgrad (Leptosphaeria nodorum): ≥ 70%
25 | 6.6 | 2.46 | Cc1cc(Oc2cc(F)cc(I)c2)c(C)cc1N=CN1CCCC1 [Nr. 22] | – | – | –
26 | 5.7 | 2.29 | CCN(C)C=Nc1cc(C)c(Oc2ccc(F)c(Br)c2)cc1C [Nr. 23] | ≥ 70 | – | pest or weed control at 100 ppm (Sphaerotheca fuliginea): ≥ 70%; Wirkungsgrad (Uromyces appendiculatus): ≥ 70%
27 | 6.2 | 2.4 | Cc1cc(Oc2ccc(Cl)c(I)c2)c(C)cc1N=CN(C)C(C)C [Nr. 24] | ≥ 70 | – | Wirkungsgrad (Leptosphaeria nodorum): ≥ 70%; pest or weed control at 100 ppm (Podosphaera leucotricha): ≥ 70%; pest or weed control at 100 ppm (Sphaerotheca fuliginea): ≥ 70%; Wirkungsgrad (Uromyces appendiculatus): ≥ 70%
28 | – | 2.29 | CCN(C)C=Nc1cc(C)c(Oc2ccc(Cl)c(I)c2)cc1C [Nr. 25] | ≥ 70 | – | Wirkungsgrad (Leptosphaeria nodorum): ≥ 70%; pest or weed control at 100 ppm (Podosphaera leucotricha): ≥ 70%
29 | – | 2.52 | Cc1cc(Oc2ccc(Cl)c(I)c2)c(C)cc1N=CN1CCCCC1 [Nr. 26] | – | – | Wirkungsgrad (Leptosphaeria nodorum): ≥ 70%
30 | 6.1 | 2.67 | CCN(C)C=Nc1cc(C)c(Oc2ccc(Br)c(I)c2)cc1C [Nr. 27] | – | – | Wirkungsgrad (Leptosphaeria nodorum): ≥ 70%
31 | 5.8 | 2.59 | Cc1cc(Oc2cc(F)cc(Br)c2)c(C)cc1N=CN1CC(C)OC(C)C1 (stereo not shown) [Nr. 29] | – | – | –
